Results as given in patent US20210386367A1, “DEVICES AND SYSTEMS FOR GASTROINTESTINAL MICROBIOME DETECTION AND MANIPULATION” (Progenity, Inc., priority 2018, published 2021).
Converted amounts (≈) assume the structure as drawn. “Also recorded” adds a separate entry of the source. Read-outs that look alike come from different tables or passages of the source.

Legend:
Escherichia coli = assay: Broth microdilution MIC, 50 clinical isolates (incl. ESBL, one NDM-1); type: cell-based
Protocol: Minimal inhibitory concentration (MIC) values were determined by broth microdilution or agar dilution in accordance with guidelines from the Clinical and Laboratory Standards Institute (CLSI; (1) “Methods for Dilution Antimicrobial Susceptibility Tests for Bacteria That Grow Aerobically; Approved Standard; 11th ed.” CLSI standard M07-A11, 2018; (2) “Performance Standards for Antimicrobial Susceptibility Testing; Twenty-Eighth Informational Supplement,” CLSI document M100-S28, 2018; and (3) “Methods for Antimicrobial Susceptibility Testing of Anaerobic Bacteria; Approved Standard—Eighth Edition,” CLSI document M11-A8, 2012).
Tested aerobically by broth microdilution: • Escherichia coli, n=50 • Klebsiella spp., n=50 • Pseudomonas aeruginosa, n=50 • Streptococcus spp., n=50 • Staphylococcus aureus, n=50 • Enterococcus faecalis, n=50 • Enterobacter aerogenes, n=50 • Proteus mirabilis, n=50
Broth microdilution testing of aerobic bacteria was conducted in cation-adjusted Mueller Hinton broth (MHBII). For testing streptococci, lysed horse blood (LHB) was added to MHBII broth at a final concentration of 3%. Where LHB was used, it was added after filtering.
Broth microdilution susceptibility testing in 96-well microplates was conducted in accordance with CLSI methods (1) and (2). Automated liquid handlers were used to conduct serial dilutions and liquid transfers, including the Multidrop 384 (Labsystems, Helsinki, Finland), Biomek 2000, and the Biomek FX (Beckman Coulter, Fullerton, Calif.). All wells in columns 2 through 12 of a standard 96-well microdilution plate (Costar 3795) were filled with 150 μL of the appropriate diluent. Then, 300 μL of the test agents were added to the wells of column 1 of the plates at 100× the highest final concentration to be tested. Serial two-fold dilutions were made across the rows through column 11 using the Biomek 2000. The wells of column 12 contained no drug and served as the growth control wells. This plate served as the “mother plate” from which MIC assay plates or “daughter plates” were made.
The daughter plates were loaded with 190 μL per well of the appropriate medium using the Multidrop 384. The daughter plates were created using the Biomek FX which transferred 2 μL of drug solution from each well of a mother plate to each corresponding well of the daughter plate in a single step. A standardized inoculum of each test organism was prepared per CLSI methods (1) to equal a 0.5 McFarland standard, followed by a dilution of 1:20 for aerobes and 1:10 for anaerobes. The plates were then inoculated with 10 μL of the diluted inoculum using the Biomek 2000 from low to high drug concentration, resulting in a final concentration of approximately 5×10^5 CFU/mL per well. An un-inoculated plate was incubated in parallel for each medium for the purpose of assessing solubility of the drug in the test media.
Inoculated plates were stacked 3 or 4 high, covered with a sterile lid on the top plate, placed into boxes with CO2 planchets (streptococci) or plastic bags (all other isolates). Plates were incubated at 35° C. for 16-24 hr in ambient air for aerobes or for 42-48 hr in the anaerobic environment of the Bactron II anaerobe chamber (Sheldon Manufacturing Co.; Cornelius, Oreg.). Following incubation, the microplates were removed from the incubator and viewed from the bottom using a plate viewer. The MIC values were read and recorded as the lowest concentration of drug that inhibited visible growth of the organism as per CLSI methods (1) and (2).

E. coli MMX 1312 = assay: Broth microdilution MIC (time-kill study); type: cell-based, Escherichia coli
[1] = tested on: E. coli (ATCC 25922, ATCC 35218, MMX 1312); assay: Spontaneous mutation frequency assay; type: cell-based, Escherichia coli; details: for Spontaneous Mutation Frequency: selection at 4× and 8× MIC, meropenem/ceftriaxone: isolates other than MMX 1312
Protocol: (§1) Initial values of the MIC were determined by agar dilution in accordance with guidelines from the Clinical and Laboratory Standards Institute (CLSI; (1) “Methods for Dilution Antimicrobial Susceptibility Tests for Bacteria That Grow Aerobically; Approved Standard; 11th ed.,” CLSI standard M07, 2018; (2) “Methods for Antimicrobial Susceptibility Testing of Anaerobic Bacteria; Approved Standard—Eighth Edition,” CLSI document M11-A8, 2012.).
(§2) The agar plates were prepared by mixing a ratio of 1.0 mL of concentrated drug to 49.0 mL of the appropriate molten (47° C.) agar; the drug-supplemented agar was mixed, poured into 15-by-150 mm petri dishes and allowed to solidify and dry at room temperature prior to inoculation. […] Each plate was allowed to cool at room temperature for at least 1 hr.
(§3) The isolates were streaked onto the appropriate agar medium and incubated for 20 hr (aerobes) or 48 hr (Bacteroides under anaerobic conditions). Using a sterile swab, several well-isolated colonies were removed and resuspended in sterile saline at a heavy cell density. Each plate was inoculated with 0.5 mL of the cell suspension (each test concentration was inoculated in duplicate). The target inoculum for each spontaneous mutation plate was 10^9-10 CFU. In addition, a portion of the inoculum from each isolate was enumerated by making dilutions, spreading on agar and counting colonies.
(§4) Once the inoculum was absorbed into the agar, the plates were incubated at 35° C. Aerobes were examined at 24 and 48 hr, and resulting colonies were counted. Bacteroides were incubated anaerobically for 48-72 hr in the anaerobe chamber and colonies were counted.
(§5) Colony counts from plates used to enumerate the initial inoculum density and from the resulting spontaneous mutation frequency test plates were determined. The inoculum size was calculated as CFU inoculated per plate. The spontaneous mutation frequency was calculated using the counts from duplicate spontaneous mutation assay test plates as follows:
(§6) If there were no colonies on the antibiotic selection plates, the spontaneous mutation frequency was reported as less than the frequency observed with one colony to indicate that the spontaneous mutation frequency was less than the limit of detection (one CFU). […] The mutation prevention concentration (MPC) was reported as the lowest concentration for which no mutants were selected.

Streptococcus spp. = assay: Spontaneous mutation frequency assay; type: cell-based; details: for Spontaneous Mutation Frequency: selection at 4× and 8× MIC
Protocol: as §1, §2, §3, §4, §5, §6

S. pneumonia = assay: Spontaneous mutation frequency and mutation prevention concentration (MPC); type: cell-based; details: S. pneumoniae ATCC 49619
Description: As used herein, “spontaneous mutation frequency” refers to the rate at which mutations arise in a bacterium that can lead to resistance to develop to an antimicrobial agent. “Mutation prevention concentration” or “MPC” refers to the lowest concentration of antimicrobial agent above which the selective proliferation of resistant mutants is expected to occur only rarely.

Structure (SMILES): C[C@@H](O)[C@H]1C(=O)N2C(C(=O)O)=C(S[C@@H]3CN[C@H](C(=O)N(C)C)C3)[C@H](C)[C@H]12 [meropenem]
- % R (Escherichia coli): 2%
- % S (Escherichia coli): Ninety-eight
- Mode (Escherichia coli): 0.015 µg/mL
- relative activity among drugs tested (Escherichia coli): most active drug tested; also recorded: most active agent
- Cumulative percentage of isolates inhibited at MIC (Escherichia coli; 0.015 μg/mL): 78.0%
- Number of test isolates at MIC (Escherichia coli; 0.015 μg/mL): 21
- Cumulative percentage of isolates inhibited at MIC (Escherichia coli; 0.03 μg/mL): 90.0%
- Number of test isolates at MIC (Escherichia coli; 0.03 μg/mL): 6
- Cumulative percentage of isolates inhibited at MIC (Escherichia coli; 0.06 μg/mL): 92.0%
- Number of test isolates at MIC (Escherichia coli; 0.06 μg/mL): 1
- Cumulative percentage of isolates inhibited at MIC (Escherichia coli; >8 μg/mL): 100.0%
- Number of test isolates at MIC (Escherichia coli; >8 μg/mL): 1
- MIC50 (Escherichia coli; Escherichia coli, read-out: MIC50): 0.015 µg/mL (≈ 0.0391 µM)
- MIC90 (Escherichia coli; Escherichia coli, read-out: MIC90): 0.03 µg/mL (≈ 0.0782 µM)
- Cumulative percentage of isolates inhibited at MIC (Escherichia coli; […]): 98.0%
- Number of test isolates at MIC (Escherichia coli; […]): 3
- % R (Escherichia coli; listed as MEM): 2%
- % S (Escherichia coli; listed as MEM): 98%
- Cumulative percentage of isolates inhibited at MIC (Escherichia coli; ≤0.008 μg/mL): 36.0%
- Number of test isolates at MIC (Escherichia coli; ≤0.008 μg/mL): 18
- MIC (E. coli MMX 1312; E. coli MMX 1312): 0.008 µg/mL (≈ 0.0209 µM)
- MIC (E. coli MMX 1312; Escherichia coli, MMX1312, broth microdilution, read-out: MIC): 0.008 µg/mL (≈ 0.0209 µM)
- colonies on selection plates ([1]; E. coli MMX 1312): too numerous to count
- mutation rate ([1]; E. coli MMX 1312): indeterminate
- colonies on selection plates ([1]; E. coli MMX 1312, listed as Meropenem): only E. coli MMX 1312 demonstrated growth
- Spontaneous Mutation Frequency [1]: ≤ 7.41×10^−9
- colonies on selection plates (Streptococcus spp.): No Streptococcus spp. or Bacteroides spp. colonies were selected
- Spontaneous Mutation Frequency (Streptococcus spp.): ≤ 9.52×10^−10
- MPC (S. pneumonia): 0.25 µg/mL
- Average Count (S. pneumonia; selection 8X MIC, 0.5 μg/mL): 0 CFU
- Count 1 (S. pneumonia; selection 8X MIC, 0.5 μg/mL): 0 CFU
- Count 2 (S. pneumonia; selection 8X MIC, 0.5 μg/mL): 0 CFU
- Spontaneous Mutation Frequency (S. pneumonia; selection 8X MIC, 0.5 μg/mL): ≤9.52 × 10^−10

Structure (SMILES): CO[C@H]1/C=C/O[C@@]2(C)Oc3c(C)c(O)c4c(O)c(c5c(nc6cc(C)ccn65)c4c3C2=O)NC(=O)/C(C)=C\C=C\[C@H](C)[C@H](O)[C@@H](C)[C@@H](O)[C@@H](C)[C@H](OC(C)=O)[C@@H]1C [rifaximin]
- MIC50 (Escherichia coli): 8 µg/mL (≈ 10.2 µM)
- MIC90 (Escherichia coli): 16 µg/mL (≈ 20.4 µM)
- MIC range (Escherichia coli): 1 to 32 µg/mL
- Mode (Escherichia coli): 8 µg/mL
- Cumulative percentage of isolates inhibited at MIC (Escherichia coli; 1 μg/mL): 2.0%
- Number of test isolates at MIC (Escherichia coli; 1 μg/mL): 1
- Cumulative percentage of isolates inhibited at MIC (Escherichia coli; 2 μg/mL): 6.0%
- Number of test isolates at MIC (Escherichia coli; 2 μg/mL): 2
- Cumulative percentage of isolates inhibited at MIC (Escherichia coli; 4 μg/mL): 34.0%
- Number of test isolates at MIC (Escherichia coli; 4 μg/mL): 14
- Cumulative percentage of isolates inhibited at MIC (Escherichia coli; 8 μg/mL): 80.0%
- Number of test isolates at MIC (Escherichia coli; 8 μg/mL): 23
- Cumulative percentage of isolates inhibited at MIC (Escherichia coli; 16 μg/mL): 98.0%
- Number of test isolates at MIC (Escherichia coli; 16 μg/mL): 9
- Cumulative percentage of isolates inhibited at MIC (Escherichia coli; 32 μg/mL): 100.0%
- Number of test isolates at MIC (Escherichia coli; 32 μg/mL): 1
- MIC (E. coli MMX 1312; E. coli MMX 1312): 8 µg/mL (≈ 10.2 µM)
- MIC (E. coli MMX 1312; broth microdilution): 8 µg/mL (≈ 10.2 µM)
- Spontaneous Mutation Frequency [1]: > 2.37×10^−8
- Spontaneous Mutation Frequency ([1]; listed as rifampin): ~10^−8
- Spontaneous Mutation Frequency (Streptococcus spp.): ≥ 2.77×10^−8
- Spontaneous Mutation Frequency (Streptococcus spp.; listed as rifampin): ~10^−8
- MFC (S. pneumonia): >0.25 µg/mL
